“Also recorded” adds a separate entry of the source.
Legend:
in vivo = assay: in vivo
From the text: The mobile phase comprising acetonitrile (A) and 0.1% formic acid water (B) was set with a 0.40-ml/min flow rate. […] MassLynx 4.1 software (Waters Corp., Milford, MA, USA) was used for data acquisition, and the UPLC-MS/MS chromatogram of blank plasma that was spiked with probe drugs and metabolites is shown below ( Figure 1 ).
Ten specific pathogen-free (SPF) grade Sprague–Dawley rats (male, 220 ± 20 g) were provided by Wenzhou Medical University Laboratory Animal Research Center. This study was carried out in accordance with the principles of the Basel Declaration and recommendations of Wenzhou Medical University Administration Committee of Experimental Animals. The protocol was approved by the Wenzhou Medical University Administration Committee of Experimental Animals (ID Number: wydw2019-650). Ten rats were randomly divided into two groups: the vonoprazan group (n = 5) and control group (n = 5). Both groups were fasted overnight before experiments but were allowed water all the time. The six probe drug mixtures and vonoprazan were dissolved in 0.5% carboxy methyl cellulose sodium (CMC-Na), respectively. The vonoprazan group was administered 5 mg/kg of vonoprazan for 14 days. The control group was administered 0.5% CMC-Na.
Next, the samples were collected into 1.5-ml centrifuge tubes and were immediately centrifuged for 10 min at 4,000 rpm speed. For every 100 µl of rat plasma was added with 200 µl of acetonitrile in 0.5 μg/ml of IS was added, followed by vortex mixing for one minute. […] In vitro DDI detection system, the pH was 7.4 and the component of buffer was consisted of 100 mM potassium phosphate.
The GraphPad (version 7.0; GraphPad Software Inc., San Diego, CA, USA) was applied to calculate IC50 values and plot plasma concentration-time curves. The pharmacokinetic parameters using noncompartmental analysis was calculated by DAS (version 3.2.8; Wenzhou Medical University, China). Statistical comparisons within groups were conducted by SPSS (version 25.0; SPSS Inc., Chicago, IL, USA), using Student's t-test.

CYP2C9 = assay: Reversible inhibition of tolbutamide metabolism by vonoprazan in rat liver microsomes (probe cocktail, UPLC-MS/MS); assay type: in vitro ADME; details: pH 7.4, probe tolbutamide (10 μM), IC50 of vonoprazan on tolbutamide metabolism (CYP2C9), rat liver microsomes 0.5 mg/ml, n = 3
Procedure: (§1) The pooled rat liver microsomes (RLMs) obtained from eight rats, which were weighed and homogenized with cold […] phosphate-buffered saline (PBS), containing […]. After centrifugation for 15 min at 11,000 rpm, the supernatants were separated and transferred into new tubes for another 15-min centrifugation at 11,000 rpm. Next, ultracentrifugation was performed at […] at 4°C for 1 h., and the microsomal pellets were resuspended with cold […] PBS and stored at −80°C ([Wang et al., 2015]). The protein concentration of RLMs was determined using the Bradford Protein Assay Kit (Thermo Scientific, Waltham, MA, USA).
(§2) Next, vonoprazan was applied as the inhibitor to determine the half maximal inhibitory concentration (IC50). […]. After preincubation in a shaking water bath at 37°C for 5 min, an NADPH-regenerating system was added to initiate the reaction in a final volume of 200 μl. The reaction was performed for 30 min, and was stopped by cooling to −80°C immediately. Next, 20 μl of internal standard (IS) working solution and 200 μl of acetonitrile were added. Centrifugation was performed at 13,000 rpm for 5 min after vortexing for 1 min. The supernatant mixture (2 μl) was injected into the UPLC–MS/MS system for analysis.

CYP1A2 = target: T1, CYP1A2 (Rattus norvegicus, UniProt P04799); assay: Reversible inhibition of phenacetin metabolism by vonoprazan in rat liver microsomes (probe cocktail, UPLC-MS/MS); assay type: in vitro ADME; details: vonoprazan 1-100 μM, phenacetin 40 μM
T1 construct: contained 0.5 mg/ml of RLMs; from tissue; host or cells: pooled rat liver microsomes
T1 sequence (P04799 1-513): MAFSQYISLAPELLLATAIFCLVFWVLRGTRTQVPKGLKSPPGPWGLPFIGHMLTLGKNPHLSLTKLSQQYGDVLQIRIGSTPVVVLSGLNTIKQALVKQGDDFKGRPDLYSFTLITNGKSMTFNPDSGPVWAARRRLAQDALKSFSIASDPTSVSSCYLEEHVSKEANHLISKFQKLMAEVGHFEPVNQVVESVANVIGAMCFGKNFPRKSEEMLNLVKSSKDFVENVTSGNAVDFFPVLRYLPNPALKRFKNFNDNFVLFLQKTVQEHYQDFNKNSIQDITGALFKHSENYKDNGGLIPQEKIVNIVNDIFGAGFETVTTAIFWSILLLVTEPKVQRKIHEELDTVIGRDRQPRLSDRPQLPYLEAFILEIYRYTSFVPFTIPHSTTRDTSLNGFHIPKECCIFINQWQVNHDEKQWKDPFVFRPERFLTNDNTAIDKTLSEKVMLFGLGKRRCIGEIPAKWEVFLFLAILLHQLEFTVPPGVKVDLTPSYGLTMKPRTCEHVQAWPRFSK
Procedure: as §1, §2

CYP3A4 = assay: Reversible inhibition of midazolam metabolism by vonoprazan in rat liver microsomes (probe cocktail, UPLC-MS/MS); assay type: in vitro ADME; details: pH 7.4, probe midazolam (5 μM), rat liver microsomes 0.5 mg/ml, n = 3
Procedure: as §1, §2

CYP2D6 = assay: Reversible inhibition of dextromethorphan metabolism by vonoprazan in rat liver microsomes (probe cocktail, UPLC-MS/MS); assay type: in vitro ADME; details: pH 7.4, probe dextromethorphan (100 μM), rat liver microsomes 0.5 mg/ml, n = 3
Procedure: as §1, §2

CYP2B6 = assay: Reversible inhibition of bupropion metabolism by vonoprazan in rat liver microsomes (probe cocktail, UPLC-MS/MS); assay type: in vitro ADME; details: pH 7.4, probe bupropion (20 μM)
Procedure: as §1, §2

[1] = parameters: method as in Kogame et al., 2017; details: rats; ref Kogame et al., 2017; cited from earlier work
[2] = male, Sprague-Dawley, rat, in vivo
[3] = male, Sprague-Dawley, rat, in vivo, po, 10 mg/kg
[4] = male, Sprague-Dawley, rat, in vivo, po
[5] = rats, Student's t-test, P < 0.05
[6] = rats, vonoprazan group vs control group

CC(NC(C)(C)C)C(=O)c1cccc(Cl)c1 (stereo not shown) [Bupropion]
Decrease of CLz/F by vonoprazan (in vivo; [2]): 70.6%
Decrease of Vz/F by vonoprazan (in vivo; [2]): 53.3%
Increase of AUC0→t compared with the control group (in vivo; [2]): 2.17 fold
Increase of AUC0→∞ compared with the control group (in vivo; [2]): 2.30 fold
Increase of Cmax by addition of vonoprazan (in vivo; [2]): 2.33 fold
AUC(0-inf) (in vivo; [3]): 243 ± 107 ng·h/mL
AUC(0-t) (in vivo; [3]): 242 ± 106 ng·h/mL
CL/F (in vivo; [3]): 863 mL/min/kg
Cmax (in vivo; [3]): 97.1 ± 55.5 ng/mL
MRT inf (in vivo; [3]): 2.78 ± 0.57 h
MRT last (in vivo; [3]): 2.72 ± 0.51 h
Tmax (in vivo; [3]): 0.37 ± 0.36 h
Vd/F (in vivo; [3]): 99.1 ± 53.7 L/kg
half-life (in vivo; [3]): 1.38 ± 0.25 h

COc1ccc2c(c1)[C@]13CCCC[C@@H]1[C@H](C2)N(C)CC3 [Dextromethorphan]
CL/F (in vivo; [4]): 532 mL/min/kg
Tmax (in vivo; [4]): 0.75 ± 0.77 h
Vd/F (in vivo; [4]): 125 ± 88.5 L/kg
half-life (in vivo; [4]): 2.61 ± 1.47 h
Difference in pharmacokinetic parameters after vonoprazan administration compared with the control group (in vivo; [5]): significant differences
Decrease of CLz/F by vonoprazan (in vivo; [6]): 61.0%
Increase of AUC0→t compared with the control group (in vivo; [6]): 1.52 fold
Increase of AUC0→∞ compared with the control group (in vivo; [6]): 1.50 fold
Increase of Cmax by addition of vonoprazan (in vivo; [6]): 1.87 fold

Cc1ncc2n1-c1ccc(Cl)cc1C(c1ccccc1F)=NC2 [Midazolam]
AUC(0-inf) (in vivo; [3]): 657 ± 198 ng·h/mL
AUC(0-t) (in vivo; [3]): 625 ± 194 ng·h/mL
CL/F (in vivo; [3]): 282 mL/min/kg
Cmax (in vivo; [3]): 335 ± 191 ng/mL
MRT inf (in vivo; [3]): 2.34 ± 1.12 h
MRT last (in vivo; [3]): 1.9 ± 0.6 h
Tmax (in vivo; [3]): 0.18 ± 0.09 h
Vd/F (in vivo; [3]): 39.4 ± 20.4 L/kg
half-life (in vivo; [3]): 1.85 ± 1.18 h
Difference in pharmacokinetic parameters after vonoprazan administration compared with the control group (in vivo; [5]): significant differences
Difference in pharmacokinetic parameters after vonoprazan administration compared with the control group (in vivo; rats, Student's t-test, P < 0.05, listed as midazolam): significant
Decrease of CLz/F by vonoprazan (in vivo; [6]): 54.7%
Increase of AUC0→t compared with the control group (in vivo; [6]): 1.17 fold
Increase of AUC0→∞ compared with the control group (in vivo; [6]): 1.25 fold
Increase of Tmax by addition of vonoprazan (in vivo; [6]): 1.50 fold

CCOc1ccc(NC(C)=O)cc1 [Phenacetin]
AUC(0-inf) (in vivo; [3]): 5040 ng·h/mL
AUC(0-t) (in vivo; [3]): 5040 ng·h/mL
CL/F (in vivo; [3]): 37.5 mL/min/kg
Cmax (in vivo; [3]): 3870 ng/mL
MRT inf (in vivo; [3]): 1.13 ± 0.21 h
MRT last (in vivo; [3]): 1.12 ± 0.2 h
Tmax (in vivo; [3]): 0.3 ± 0.11 h
Vd/F (in vivo; [3]): 1.97 ± 0.81 L/kg
Difference in pharmacokinetic parameters after vonoprazan administration compared with the control group (in vivo; rat, in vivo): not significantly different

CCCCNC(=O)NS(=O)(=O)c1ccc(C)cc1 [Tolbutamide]
Increase of AUC0→t compared with the control group (in vivo; [2]): 0.86 fold
Increase of AUC0→∞ compared with the control group (in vivo; [2]): 0.83 fold
Increase of Cmax by addition of vonoprazan (in vivo; [2]): 0.67 fold
CL/F (in vivo; [4]): 0.167 mL/min/kg
Tmax (in vivo; [4]): 3 ± 1 h
Vd/F (in vivo; [4]): 0.03 ± 0.01 L/kg
half-life (in vivo; [4]): 4.99 ± 1.56 h

CCCCNC(=O)NS(=O)(=O)c1ccc(C)cc1 [Vonoprazan + tolbutamide]
CLz/F (in vivo; rat, in vivo, po): 0.033 ± 0.017 mL/min/kg
Tmax (in vivo; rat, in vivo, po): 3.60 ± 1.34 h
Vz/F (in vivo; rat, in vivo, po): 0.0140 ± 0.0020 L/kg
t1/2z (in vivo; rat, in vivo, po): 4.83 ± 1.27 h

CNCc1cc(-c2ccccc2F)n(S(=O)(=O)c2cccnc2)c1 [vonoprazan, Vonoprazan]
IC50 at 30 min (CYP2C9): 18.3 µM
Inhibition of phenacetin metabolism (CYP1A2) by vonoprazan (CYP1A2): no inhibition; also recorded: no effect
IC50 at 30 min (CYP2D6): 3.62 µM
IC50 at 30 min (CYP2B6): 3.68 µM

Source: article PMC7033572, “Cytochrome P450-Based Drug-Drug Interactions of Vonoprazan In Vitro and In Vivo” (Frontiers in Pharmacology, 2020)
